According to US4678666A, “Topical anti-inflammatory compositions” (Pfizer Inc., priority 1982, dated 1987):
Entries after “also recorded” stand apart in the source; their conditions may differ. Like-named read-outs stand apart in the source and are kept apart here.

How the values were obtained:
[1] = system: carragenin-induced foot edema; assay: Carragenin-induced rat foot edema test; assay type: in vivo; conditions: oral administration, 1 mg./kg.
Experimental: The anti-inflammatory activity of the compositions of this invention was determined using the standard carragenin-induced rat foot edema test. [C. A. Winter et al., Proceedings of the Society for Experimental Biology and Medicine, Vol. 111, p. 544 (1962)]. Piroxicam ointment (1%), prepared according to Example 10, was administered topically at a dose level of 100 mg. per rat. The results obtained are presented in the table below (Table 6) in terms of the percent inhibition of edema formation, as compared to the non-drug treated control and the oral administration of piroxicam (1 mg./kg.): […]

[2] = cited from earlier work
[3] = words, background; cited from earlier work
[4] = Solubility of Piroxicam with solubilizers; assay type: physicochemical
Text: This invention employs a solubilizing agent to dissolve piroxicam in bases for formulation; the piroxicam-solubilizing agent is selected from the class of alkanolamines. […] The monoalkanolamines have from one to four carbon atoms and include methanolamine, ethanolamine, propanolamine and butanolamine. The dialkanolamines have from two to eight carbon atoms and include dimethanolamine, diethanolamine, dipropanolamine and dibutanolamine. The trialkanolamines have from three to twelve carbon atoms and include trimethanolamine, triethanolamine, tripropanolamine and tributanolamine.

[5] = At a higher pH than 9.0; cited from earlier work

SMILES	% Inhibition of edema [1]	Absorption through skin ([2]; compounded in suspension with conventional bases for ointment or cream)	Absorption through skin ([2]; tincture, dissolved in an alcoholic solvent such as ethanol)	Liposolubility [3]	Solubility in water [3]	Solubility of Piroxicam ([4]; Ammonia 10%, solvent: water)	Solubility of Piroxicam ([4]; Control (none), no solubilizer, solvent: water)	Solubility of Piroxicam ([4]; Di-isopropanolamine 10%, solvent: water)	Solubility of Piroxicam ([4]; Di-isopropyl adipate 10%, solvent: 1:1 water-ethanol)	Solubility of Piroxicam ([4]; Diethanolamine 10%, solvent: water)	Solubility of Piroxicam ([4]; Diethyl sebacate 10%, solvent: 1:1 water-ethanol)	Solubility of Piroxicam ([4]; Ethanolamine 10%, solvent: water)	Solubility of Piroxicam ([4]; Isopropyl myristate 10%, solvent: 1:1 water-ethanol)	Solubility of Piroxicam ([4]; N-Ethyl-o-crotonotoluidide 10%, solvent: 1:1 water-ethanol)	Chemical stability [5]	Solubility relative to piroxicam [3]
CN1C(C(=O)Nc2ccccn2)=C(O)c2ccccc2S1(=O)=O [Piroxicam, N-(2-pyridyl)-2-methyl-4-hydroxy-2H-1,2-benzothiazine-3-carboxamide 1,1-dioxide]	39.6%	poorly absorbed through skin	will not be absorbed through the skin	not liposoluble	sparingly soluble in water; also recorded: sparingly soluble in water or any other solvent	60.0 mg/g	0.01 mg/g	195 mg/g	1.2 mg/g	204 mg/g	2.0 mg/g	392 mg/g	0.4 mg/g	1.8 mg/g	chemically unstable and may even decompose or deteriorate in quality	–
CN1C(C(=O)Nc2ccccn2)=C(O)c2ccccc2S1(=O)=O [hydrate]	–	–	–	–	–	–	–	–	–	–	–	–	–	–	–	less soluble than piroxicam itself
